Assay results: ChEMBL document CHEMBL4811247, “Small molecule and macrocyclic pyrazole derived inhibitors of myeloperoxidase (MPO)” (Bioorg Med Chem Lett, 2021)

System: not listed separately
Test: Volume of distribution at steady state in mouse at 1 mg/kg, iv
Assay type: ADME, organism-based
Details: in vivo, read-out: Vdss

SMILES | Vd
Nc1cc(Cc2ccn(Cc3cccc(C4CCNCC4)c3)n2)c2nn[nH]c2n1 | 0.2 L/kg

System: not listed separately
Test: Half life in mouse at 1 mg/kg, iv
Assay type: ADME, organism-based
Details: in vivo

SMILES | half-life
Nc1cc(Cc2ccn(Cc3cccc(C4CCNCC4)c3)n2)c2nn[nH]c2n1 | 72 min

System: not listed separately
Test: Clearance in mouse at 1 mg/kg, iv
Assay type: ADME, organism-based
Details: in vivo

SMILES | clearance
Nc1cc(Cc2ccn(Cc3cccc(C4CCNCC4)c3)n2)c2nn[nH]c2n1 | 2.6 mL/min/kg

System: not listed separately
Test: Protein binding in human plasma
Assay type: ADME, cell-free
Details: read-out: PPB (converted)

SMILES | fraction unbound
Nc1cc(Cc2ccn(Cc3ccc4c(c3)CCNC4)n2)c2nn[nH]c2n1 | 0.5
Nc1cc(Cc2ccn(Cc3cccc(C4CCNCC4)c3)n2)c2nn[nH]c2n1 | 0.2

System: not listed separately
Test: Permeability of the compound by PAMPA method
Assay type: ADME
Details: not given

SMILES | permeability
Nc1cc(Cc2ccn(Cc3cccc(C4CCNCC4)c3)n2)c2nn[nH]c2n1 | Impermeable

Molecular target: CYP3A4 (Homo sapiens, UniProt P08684)
Sequence (P08684 whole entry): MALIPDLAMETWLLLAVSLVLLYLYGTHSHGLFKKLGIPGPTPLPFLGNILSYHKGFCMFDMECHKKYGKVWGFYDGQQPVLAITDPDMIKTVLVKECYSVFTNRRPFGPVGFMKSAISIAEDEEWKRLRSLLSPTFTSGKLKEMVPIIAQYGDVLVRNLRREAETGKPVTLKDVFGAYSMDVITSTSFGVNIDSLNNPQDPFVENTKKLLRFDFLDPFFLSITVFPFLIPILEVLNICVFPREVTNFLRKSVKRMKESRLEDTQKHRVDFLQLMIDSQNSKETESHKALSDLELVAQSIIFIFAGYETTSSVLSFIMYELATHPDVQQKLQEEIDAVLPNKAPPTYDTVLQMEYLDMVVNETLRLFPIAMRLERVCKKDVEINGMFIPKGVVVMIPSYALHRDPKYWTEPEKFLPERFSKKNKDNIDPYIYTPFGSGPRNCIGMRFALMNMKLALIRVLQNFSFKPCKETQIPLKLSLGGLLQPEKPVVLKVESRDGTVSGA
Test: Ratio of IC50 for time dependent inhibition of CYP3A4 (unknown origin) measured at 5 mins to IC50 for time dependent inhibition of CYP3A4 (unknown origin) measured at 30 mins
Details: read-out: Ratio IC50

SMILES | IC50 shift
Nc1cc(Cc2ccn(Cc3cccc(Oc4cccc5c4CNC5)c3)n2)c2nn[nH]c2n1 | 3.3
Nc1cc(Cc2ccn(-c3ccc(F)cc3)n2)c2nn[nH]c2n1 | 3.3
Nc1cc(Cc2ccn(-c3cccc(-c4ccccc4)c3)n2)c2nn[nH]c2n1 | 2.4
Nc1cc(Cc2ccn(Cc3ccc4c(c3)CCNC4)n2)c2nn[nH]c2n1 | 2.8
Nc1cc(Cc2ccn(Cc3ccc4cnccc4c3)n2)c2nn[nH]c2n1 | 4.1
Nc1cc(Cc2ccn(-c3ccccn3)n2)c2nn[nH]c2n1 | 3.2
Nc1cc(Cc2ccn(Cc3cccc(O[C@H]4CCNC4)c3)n2)c2nn[nH]c2n1 | 1.6
Nc1cc(Cc2ccn(Cc3cccc(C4CCNCC4)c3)n2)c2nn[nH]c2n1 | 4.3
Nc1cc(Cc2ccn(Cc3ccc4ccccc4c3)n2)c2nn[nH]c2n1 | 2.4
Nc1cc(Cc2ccn(Cc3cccc(Oc4ccccc4)c3)n2)c2nn[nH]c2n1 | 2.9
Nc1cc(Cc2ccn(-c3ccccc3)n2)c2nn[nH]c2n1 | 2.7
Nc1cc(Cc2ccn(Cc3ccccc3)n2)c2nn[nH]c2n1 | 3.2
Nc1cc(Cc2ccn(Cc3cccc(Cc4ccccc4)c3)n2)c2nn[nH]c2n1 | 2.8
Nc1cc(Cc2ccn(Cc3cccc(-c4ccccc4)c3)n2)c2nn[nH]c2n1 | 2.8

Molecular target: T1, Myeloperoxidase (Homo sapiens, UniProt P05164)
T1 sequence (P05164 whole entry): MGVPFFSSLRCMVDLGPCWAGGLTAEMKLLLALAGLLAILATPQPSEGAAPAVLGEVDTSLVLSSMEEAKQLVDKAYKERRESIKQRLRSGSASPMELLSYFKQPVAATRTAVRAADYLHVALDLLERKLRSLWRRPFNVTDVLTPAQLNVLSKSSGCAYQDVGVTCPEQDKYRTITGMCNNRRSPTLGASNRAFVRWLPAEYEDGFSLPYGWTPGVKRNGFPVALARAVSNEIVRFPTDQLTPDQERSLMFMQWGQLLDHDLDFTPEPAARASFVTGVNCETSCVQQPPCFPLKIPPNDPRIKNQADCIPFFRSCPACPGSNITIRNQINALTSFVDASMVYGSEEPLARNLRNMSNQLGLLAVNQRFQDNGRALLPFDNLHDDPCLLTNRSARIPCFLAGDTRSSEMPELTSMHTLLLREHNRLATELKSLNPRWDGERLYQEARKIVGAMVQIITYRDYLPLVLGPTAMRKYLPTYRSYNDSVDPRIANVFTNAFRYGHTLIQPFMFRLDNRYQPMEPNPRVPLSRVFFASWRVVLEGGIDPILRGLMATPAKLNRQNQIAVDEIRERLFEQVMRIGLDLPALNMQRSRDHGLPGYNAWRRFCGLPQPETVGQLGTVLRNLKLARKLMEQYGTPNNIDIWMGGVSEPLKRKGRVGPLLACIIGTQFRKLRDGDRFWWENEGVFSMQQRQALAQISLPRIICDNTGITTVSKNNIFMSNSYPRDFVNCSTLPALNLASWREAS
Details: not given

SMILES | IC50
Nc1cc(Cc2ccn(Cc3cccc(Oc4cccc5c4CNC5)c3)n2)c2nn[nH]c2n1 | 26 nM
Nc1cc(C2CCNC34CCC(c5ccccc5)(CC3)[C@H](C4)Oc3cccc(c3)Cn3cc2cn3)c2nn[nH]c2n1 (stereo partly drawn) | 7 nM
Nc1cc(C2CCNCc3cccc(c3)COc3cccc(c3)Cn3cc2cn3)c2nn[nH]c2n1 (stereo not drawn) | 25 nM
Nc1cc([C@H]2CCN[C@H]3C[C@H](Cc4ccccc4)[C@@H](C3)Oc3cccc(c3)Cn3cc2cn3)c2nn[nH]c2n1 | 5 nM
Nc1cc(Cc2ccn(-c3ccc(F)cc3)n2)c2nn[nH]c2n1 | 53 nM
Nc1cc(Cc2ccn(-c3cccc(-c4ccccc4)c3)n2)c2nn[nH]c2n1 | 85 nM
Nc1cc(Cc2ccn(Cc3ccc4c(c3)CCNC4)n2)c2nn[nH]c2n1 | 58 nM
Nc1cc(C2CCNCCc3cccc(c3)OCc3cccc(c3)Cn3cc2cn3)c2nn[nH]c2n1 (stereo not drawn) | 17 nM
Nc1cc(C2CCNC3CCC(CC3)COc3cccc(c3)Cn3cc2cn3)c2nn[nH]c2n1 (stereo not drawn) | 31 nM
Nc1cc(Cc2ccn(Cc3ccc4cnccc4c3)n2)c2nn[nH]c2n1 | 140 nM
Nc1cc(Cc2ccn(-c3ccccn3)n2)c2nn[nH]c2n1 | 54 nM
Nc1cc(Cc2ccn(Cc3cccc(O[C@H]4CCNC4)c3)n2)c2nn[nH]c2n1 | 46 nM
Nc1cc(Cc2ccn(Cc3cccc(C4CCNCC4)c3)n2)c2nn[nH]c2n1 | 100 nM
Nc1cc(Cc2ccn(Cc3ccc4ccccc4c3)n2)c2nn[nH]c2n1 | 52 nM
Nc1cc(C2CCNCC(=O)N(CCc3ccccc3)Cc3cccc(c3)Cn3cc2cn3)c2nn[nH]c2n1 (stereo not drawn) | 29 nM
Nc1cc(Cc2ccn(Cc3cccc(Oc4ccccc4)c3)n2)c2nn[nH]c2n1 | 44 nM
Nc1cc(C2CCNCc3cccc(c3)Oc3cccc(c3)Cn3cc2cn3)c2nn[nH]c2n1 (stereo not drawn) | 36 nM
Nc1cc(Cc2ccn(-c3ccccc3)n2)c2nn[nH]c2n1 | 55 nM
Nc1cc(C2CCNCCc3cccc(c3)-c3cccc(c3)Cn3cc2cn3)c2nn[nH]c2n1 (stereo not drawn) | 21 nM
Nc1cc(Cc2ccn(Cc3ccccc3)n2)c2nn[nH]c2n1 | 120 nM
Nc1cc(C2CCNCC3(CCCC3)COc3cccc(c3)Cn3cc2cn3)c2nn[nH]c2n1 (stereo not drawn) | 26 nM
Nc1cc(C2CCNCc3cccc(c3)OCc3cccc(c3)Cn3cc2cn3)c2nn[nH]c2n1 (stereo not drawn) | 8 nM
Nc1cc(Cc2ccn(Cc3cccc(Cc4ccccc4)c3)n2)c2nn[nH]c2n1 | 39 nM
Nc1cc(C2CCNCCc3cccc(c3)Oc3cccc(c3)Cn3cc2cn3)c2nn[nH]c2n1 (stereo not drawn) | 14 nM
Nc1cc(Cc2ccn(Cc3cccc(-c4ccccc4)c3)n2)c2nn[nH]c2n1 | 55 nM

Molecular target: T2, Thyroid peroxidase (Homo sapiens, UniProt P07202)
T2 sequence (P07202 whole entry): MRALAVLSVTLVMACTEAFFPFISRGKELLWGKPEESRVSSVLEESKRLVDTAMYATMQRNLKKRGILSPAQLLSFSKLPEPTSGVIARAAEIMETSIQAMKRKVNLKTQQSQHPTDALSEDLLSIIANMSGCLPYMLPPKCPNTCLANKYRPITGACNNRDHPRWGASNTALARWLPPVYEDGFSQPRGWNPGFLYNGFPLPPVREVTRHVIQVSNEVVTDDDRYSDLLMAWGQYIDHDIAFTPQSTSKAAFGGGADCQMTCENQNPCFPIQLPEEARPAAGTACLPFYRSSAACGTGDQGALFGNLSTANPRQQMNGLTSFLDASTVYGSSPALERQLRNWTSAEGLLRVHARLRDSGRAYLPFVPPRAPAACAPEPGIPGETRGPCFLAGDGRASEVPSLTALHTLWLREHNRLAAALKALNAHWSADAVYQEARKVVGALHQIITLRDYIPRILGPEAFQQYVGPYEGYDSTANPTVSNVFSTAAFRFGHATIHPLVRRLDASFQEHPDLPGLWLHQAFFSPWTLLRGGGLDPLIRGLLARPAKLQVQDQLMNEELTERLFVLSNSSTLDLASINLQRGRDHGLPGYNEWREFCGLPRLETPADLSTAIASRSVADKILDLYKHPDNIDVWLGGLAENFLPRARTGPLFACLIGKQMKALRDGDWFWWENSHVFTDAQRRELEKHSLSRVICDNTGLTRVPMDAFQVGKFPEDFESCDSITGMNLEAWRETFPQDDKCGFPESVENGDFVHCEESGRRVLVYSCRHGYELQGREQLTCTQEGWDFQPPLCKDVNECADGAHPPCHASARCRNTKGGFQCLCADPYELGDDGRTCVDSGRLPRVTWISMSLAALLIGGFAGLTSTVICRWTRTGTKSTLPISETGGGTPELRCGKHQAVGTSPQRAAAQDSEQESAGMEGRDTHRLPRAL
Test: (§1) Inhibition of C-terminal hexaHis-tagged TPO (unknown origin) expressed in Trichoplusia ni insect cells using 3-iodo tyrosine as substrate preincubated for 10 mins followed by substrate and H2O2 addition and further incubated for 15 mins
Details: not given

SMILES | IC50
Nc1cc(Cc2ccn(Cc3cccc(Oc4cccc5c4CNC5)c3)n2)c2nn[nH]c2n1 | 1700 nM
Nc1cc(Cc2ccn(-c3ccc(F)cc3)n2)c2nn[nH]c2n1 | 700 nM
Nc1cc(Cc2ccn(-c3cccc(-c4ccccc4)c3)n2)c2nn[nH]c2n1 | 710 nM
Nc1cc(Cc2ccn(Cc3ccc4c(c3)CCNC4)n2)c2nn[nH]c2n1 | 6700 nM
Nc1cc(Cc2ccn(Cc3ccc4cnccc4c3)n2)c2nn[nH]c2n1 | 1800 nM
Nc1cc(Cc2ccn(-c3ccccn3)n2)c2nn[nH]c2n1 | 2000 nM
Nc1cc(Cc2ccn(Cc3cccc(O[C@H]4CCNC4)c3)n2)c2nn[nH]c2n1 | 14000 nM
Nc1cc(Cc2ccn(Cc3cccc(C4CCNCC4)c3)n2)c2nn[nH]c2n1 | 21000 nM
Nc1cc(Cc2ccn(Cc3ccc4ccccc4c3)n2)c2nn[nH]c2n1 | 1100 nM
Nc1cc(Cc2ccn(Cc3cccc(Oc4ccccc4)c3)n2)c2nn[nH]c2n1 | 1100 nM
Nc1cc(Cc2ccn(-c3ccccc3)n2)c2nn[nH]c2n1 | 640 nM
Nc1cc(Cc2ccn(Cc3ccccc3)n2)c2nn[nH]c2n1 | 2300 nM
Nc1cc(Cc2ccn(Cc3cccc(Cc4ccccc4)c3)n2)c2nn[nH]c2n1 | 1900 nM
Nc1cc(Cc2ccn(Cc3cccc(-c4ccccc4)c3)n2)c2nn[nH]c2n1 | 1100 nM

Molecular target: T1, Myeloperoxidase
Test: Inhibition of PMA-induced MPO in human Neutrophil incubated for 3 mins by luminometry
Assay type: tissue-based
Details: not given

SMILES | IC50
Nc1cc(Cc2ccn(Cc3ccc4c(c3)CCNC4)n2)c2nn[nH]c2n1 | 5 µM
Nc1cc(Cc2ccn(Cc3cccc(C4CCNCC4)c3)n2)c2nn[nH]c2n1 | 2.4 µM

System: not listed separately
Test: Half life in human liver microsomes
Assay type: ADME, Microsome
Details: not given

SMILES | half-life
Nc1cc(Cc2ccn(Cc3ccc4c(c3)CCNC4)n2)c2nn[nH]c2n1 | > 120 min
Nc1cc(Cc2ccn(Cc3cccc(C4CCNCC4)c3)n2)c2nn[nH]c2n1 | > 120 min

Molecular target: Cytochrome P450 3A4 (Homo sapiens, UniProt P08684)
Sequence (P08684 whole entry): as the sequence (P08684 whole entry) above
Test: Time dependent inhibition of CYP3A4 (unknown origin) measured at 30 mins
Assay type: ADME
Details: not given

SMILES | IC50
Nc1cc(Cc2ccn(Cc3cccc(Oc4cccc5c4CNC5)c3)n2)c2nn[nH]c2n1 | 140 nM
Nc1cc(Cc2ccn(-c3ccc(F)cc3)n2)c2nn[nH]c2n1 | 110 nM
Nc1cc(Cc2ccn(-c3cccc(-c4ccccc4)c3)n2)c2nn[nH]c2n1 | 7.1 nM
Nc1cc(Cc2ccn(Cc3ccc4c(c3)CCNC4)n2)c2nn[nH]c2n1 | 7000 nM
Nc1cc(Cc2ccn(Cc3ccc4cnccc4c3)n2)c2nn[nH]c2n1 | 210 nM
Nc1cc(Cc2ccn(-c3ccccn3)n2)c2nn[nH]c2n1 | 210 nM
Nc1cc(Cc2ccn(Cc3cccc(O[C@H]4CCNC4)c3)n2)c2nn[nH]c2n1 | 13000 nM
Nc1cc(Cc2ccn(Cc3cccc(C4CCNCC4)c3)n2)c2nn[nH]c2n1 | 3300 nM
Nc1cc(Cc2ccn(Cc3ccc4ccccc4c3)n2)c2nn[nH]c2n1 | 40 nM
Nc1cc(Cc2ccn(Cc3cccc(Oc4ccccc4)c3)n2)c2nn[nH]c2n1 | 11 nM
Nc1cc(Cc2ccn(-c3ccccc3)n2)c2nn[nH]c2n1 | 210 nM
Nc1cc(Cc2ccn(Cc3ccccc3)n2)c2nn[nH]c2n1 | 310 nM
Nc1cc(Cc2ccn(Cc3cccc(Cc4ccccc4)c3)n2)c2nn[nH]c2n1 | 37 nM
Nc1cc(Cc2ccn(Cc3cccc(-c4ccccc4)c3)n2)c2nn[nH]c2n1 | 17 nM

Species on record: Homo sapiens
Test: as §1, with “Selectivity ratio” for “Inhibition”, “of IC50 for MPO (unknown origin) chlorination activity incubated for 10 mins followed by NaCl addition by aminophenyl fluorescein assay to IC50 for” for “of”
Details: not given

SMILES | Ratio IC50
Nc1cc(Cc2ccn(Cc3ccc4c(c3)CCNC4)n2)c2nn[nH]c2n1 | 120
